Measured values from PubChem BioAssay (NCI).
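Following 48 hours of exposure in 96-well plates, responses at five concentrations were used to interpolate endpoints linearly. TGI marks complete inhibition of growth.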

Columns and labels:
Assay in all cases: NCI-60 cell line screen, 48 h
[1] = tested on: 786-0 renal
[2] = tested on: A498 renal
[3] = tested on: A549 NSCLC
[4] = tested on: ACHN renal
[5] = tested on: BT-549 breast
[6] = tested on: CAKI-1 renal
[7] = tested on: CCRF-CEM leukemia
[8] = tested on: COLO 205 colon
[9] = tested on: DU-145 prostate
[10] = tested on: EKVX NSCLC
[11] = tested on: HCC-2998 colon
[12] = tested on: HCT-116 colon
[13] = tested on: HCT-15 colon
[14] = tested on: HL-60(TB) leukemia
[15] = tested on: HOP-62 NSCLC
[16] = tested on: HOP-92 NSCLC
[17] = tested on: HS 578T breast
[18] = tested on: HT29 colon
[19] = tested on: IGROV1 ovarian
[20] = tested on: K-562 leukemia
[21] = tested on: KM12 colon
[22] = tested on: LOX IMVI melanoma
[23] = tested on: M14 melanoma
[24] = tested on: MALME-3M melanoma
[25] = tested on: MCF7 breast
[26] = tested on: MDA-MB-231 breast
[27] = tested on: MDA-MB-435
[28] = tested on: MDA-N
[29] = tested on: MOLT-4 leukemia
[30] = tested on: NCI-H226 lung
[31] = tested on: NCI-H23 lung
[32] = tested on: NCI-H460 lung
[33] = tested on: NCI-H522 lung
[34] = tested on: NCI/ADR-RES ovarian
[35] = tested on: OVCAR-3 ovarian
[36] = tested on: OVCAR-4 ovarian
[37] = tested on: OVCAR-5 ovarian
[38] = tested on: OVCAR-8 ovarian
[39] = tested on: PC-3 prostate
[40] = tested on: RPMI-8226 leukemia
[41] = tested on: RXF 393 renal
[42] = tested on: SF-268 CNS
[43] = tested on: SF-295 CNS
[44] = tested on: SF-539 CNS
[45] = tested on: SK-MEL-2 melanoma
[46] = tested on: SK-MEL-28 melanoma
[47] = tested on: SK-MEL-5 melanoma
[48] = tested on: SN12C renal
[49] = tested on: SNB-19 CNS
[50] = tested on: SNB-75 CNS
[51] = tested on: SR leukemia
[52] = tested on: SW-620 colon
[53] = tested on: T-47D breast
[54] = tested on: U251 CNS
[55] = tested on: UACC-257 melanoma
[56] = tested on: UACC-62 melanoma
[57] = tested on: UO-31 renal
[58] = tested on: SK-OV-3 ovarian
[59] = tested on: TK-10 renal

Compound: O=c1oc2cc(N=Cc3ccccc3Cl)ccc2c2ccccc12
- TGI [1]: > 100 µM
- TGI [2]: > 100 µM
- TGI [3]: > 100 µM
- TGI [4]: > 100 µM
- TGI [5]: > 100 µM
- TGI [6]: > 100 µM
- TGI [7]: > 100 µM
- TGI [8]: > 100 µM
- TGI [9]: > 100 µM
- TGI [10]: > 100 µM
- TGI [11]: > 100 µM
- TGI [12]: > 100 µM
- TGI [13]: > 100 µM
- TGI [14]: > 100 µM
- TGI [15]: > 100 µM
- TGI [16]: > 100 µM
- TGI [17]: > 100 µM
- TGI [18]: > 100 µM
- TGI [19]: > 100 µM
- TGI [20]: > 100 µM
- TGI [21]: > 100 µM
- TGI [22]: > 100 µM
- TGI [23]: > 100 µM
- TGI [24]: > 100 µM
- TGI [25]: > 100 µM
- TGI [26]: > 100 µM
- TGI [27]: > 100 µM
- TGI [28]: > 100 µM
- TGI [29]: > 100 µM
- TGI [30]: > 100 µM
- TGI [31]: > 100 µM
- TGI [32]: > 100 µM
- TGI [33]: > 100 µM
- TGI [34]: > 100 µM
- TGI [35]: > 100 µM
- TGI [36]: > 100 µM
- TGI [37]: > 100 µM
- TGI [38]: > 100 µM
- TGI [39]: > 100 µM
- TGI [40]: > 100 µM
- TGI [41]: > 100 µM
- TGI [42]: > 100 µM
- TGI [43]: > 100 µM
- TGI [44]: > 100 µM
- TGI [45]: > 100 µM
- TGI [46]: > 100 µM
- TGI [47]: > 100 µM
- TGI [48]: > 100 µM
- TGI [49]: > 100 µM
- TGI [50]: > 100 µM
- TGI [51]: > 100 µM
- TGI [52]: > 100 µM
- TGI [53]: > 100 µM
- TGI [54]: > 100 µM
- TGI [55]: > 100 µM
- TGI [56]: > 100 µM
- TGI [57]: > 100 µM

Compound: COc1ccc(-c2cc(-c3ccccc3)n(C3OCC(OC(C)=O)C(OC(C)=O)C3OC(C)=O)c(=S)c2C#N)cc1 (stereo not given)
- TGI [2]: > 100 µM
- TGI [3]: > 100 µM
- TGI [4]: > 100 µM
- TGI [5]: > 100 µM
- TGI [6]: > 100 µM
- TGI [7]: > 100 µM
- TGI [8]: > 100 µM
- TGI [9]: > 100 µM
- TGI [10]: > 100 µM
- TGI [11]: > 100 µM
- TGI [12]: > 100 µM
- TGI [13]: > 100 µM
- TGI [14]: > 100 µM
- TGI [15]: > 100 µM
- TGI [16]: 53.6 µM
- TGI [17]: > 100 µM
- TGI [18]: > 100 µM
- TGI [19]: > 100 µM
- TGI [20]: > 100 µM
- TGI [21]: > 100 µM
- TGI [22]: > 100 µM
- TGI [23]: > 100 µM
- TGI [24]: > 100 µM
- TGI [25]: > 100 µM
- TGI [26]: > 100 µM
- TGI [27]: > 100 µM
- TGI [28]: > 100 µM
- TGI [29]: > 100 µM
- TGI [30]: > 100 µM
- TGI [31]: > 100 µM
- TGI [32]: > 100 µM
- TGI [33]: > 100 µM
- TGI [34]: > 100 µM
- TGI [35]: > 100 µM
- TGI [36]: > 100 µM
- TGI [37]: > 100 µM
- TGI [38]: > 100 µM
- TGI [39]: > 100 µM
- TGI [40]: > 100 µM
- TGI [41]: > 100 µM
- TGI [42]: > 100 µM
- TGI [43]: > 100 µM
- TGI [44]: > 100 µM
- TGI [45]: > 100 µM
- TGI [46]: > 100 µM
- TGI [47]: > 100 µM
- TGI [58]: > 100 µM
- TGI [48]: > 100 µM
- TGI [49]: > 100 µM
- TGI [50]: > 100 µM
- TGI [51]: > 100 µM
- TGI [52]: > 100 µM
- TGI [53]: > 100 µM
- TGI [59]: > 100 µM
- TGI [54]: > 100 µM
- TGI [55]: > 100 µM
- TGI [56]: > 100 µM
- TGI [57]: > 100 µM
